These results are taken from patent publication US8461382B2, “Ionic liquids” (BASF SE, priority 2007, dated 2013).

As a reminder, the melting point is the temperature, or range, at which the solid turns liquid.

The nature of data set [1]: Miscibility of the ionic liquid with water and organic solvents. In kind it is physicochemical. On the procedure:
(§1) The viscosity at 25° C. at a low shear rate is in the order of one million millipascal seconds.
(§2) Owing to the amphiphilic and thus solubilizing properties, the ionic liquid of example 6 has a wider solvent spectrum than conventional ionic liquids. Furthermore, it can be concluded that the ionic liquid of example 6 has structuring properties in water, organic solvents and in particular also in the pure state. Accordingly, it can serve, for example, as template in the mineralization processes (e.g. for mesoporous silicates). Furthermore, the ionic liquid of example 6 is liquid at room temperature (for melting point, see Table 1).

A short description of data set [2]: Viscosity of the ionic liquids at 25° C. The format is physicochemical. On the procedure:
as §1
(§3) Melting and decomposition points (commencement of decomposition) and viscosities of various 2,5,8,11-tetraoxatridecan-13-oates.
^1All liquids examined behaved as Newtonian fluids

Data set [3] is described as follows: Solubility experiments: salts and olive oil dissolved in TEGMECH2COONa. In kind it is physicochemical. The protocol: Solubility experiments were carried out using the sodium 2,5,8,11-tetraoxatridecan-13-oate synthesized as described in example 1.
The solubility of olive oil in a concentration of up to 10% by weight in TEGMECH2COONa is particularly worthy of mention with regard to the environmental compatibility of the sodium salt.

Data set [4] can be described thus: Decomposition point (commencement of decomposition) of 2,5,8,11-tetraoxatridecan-13-oates. The format is physicochemical.
Excerpt: as §3

Data set [5] can be described thus: Electrical conductivity, fluorescence and surface tension measurements in aqueous solution. The format is physicochemical. As to conditions: concluded from conductivity and fluorescence or surface tension measurements in aqueous medium.
Excerpt: as §2

For the compound `COCCOCCOCCOCC(=O)[O-].[Na+]` [Example 1, sodium 2,5,8,11-tetraoxatridecan-13-oate], the Miscibility with acetone result in data set [1] (acetone) is “miscible in any ratio”. Moreover, in data set [1] (dichloromethane), the Miscibility with dichloromethane entry is on record as “miscible in any ratio”. The “Miscibility with diethyl ether” value in data set [1] (diethyl ether) is listed as “partially miscible”. In data set [1] (pentanol), the Miscibility with pentanol entry is “miscible in any ratio”. The Miscibility with water result in data set [1] is listed as “miscible in any ratio”. The Viscosity in data set [2] (at 25° C.) was 1.64 · 10^5 mPa · s; in data set [2] (at 25° C. at a low shear rate, order of magnitude), “one million”. The “Solubility of magnesium sulfate in the ionic liquid” value in data set [3] (120° C.) is “appreciably soluble”. Further, in data set [3] (room temperature), the “Solubility of ammonium nitrate in the ionic liquid” value is reported as “readily soluble”. The “Solubility of NaCl in the ionic liquid” value in data set [3] (temperatures above 100° C.) is “dissolves in low concentrations”. This compound yielded a Decomposition point in data set [4] of 384 °C.

As to `COCCOCCOCCOCC(=O)[O-].[K+]` [Example 3, potassium 2,5,8,11-tetraoxatridecan-13-oate], the melting point is 59.1 °C. In data set [4], this compound yielded a Decomposition point of 369 °C.

With `COCCOCCOCCOCC(=O)O` [Example 5, hexylammonium 2,5,8,11-tetraoxatridecan-13-oate], the Viscosity in data set [2] (at 25° C.) is recorded as 2.40 · 10^2 mPa · s; in data set [2] (order of magnitude), ~20 000 mPas. For the same compound, the “Character in aqueous solution” value in data set [5] is given as “hydrotropic character”.

As to `CCCCCCCCN.COCCOCCOCCOCC(=O)O` [Example 7], the Viscosity in data set [2] (at 25° C.) is given as 3.75 · 10^2 mPa · s. This compound yielded a Decomposition point in data set [4] of 145 °C.

Take `CCCCCCCCCCN.COCCOCCOCCOCC(=O)O` [Example 8]: in data set [2] (at 25° C.), the Viscosity is 4.00 · 10^2 mPa · s. Besides, the Decomposition point in data set [4] amounted to 156 °C.

In data set [4], “calcium di(2,5,8,11-tetraoxatridecan-13-oate) [Example 4]” had a Decomposition point of 320 °C.

Take “dodecylammonium 2,5,8,11-tetraoxatridecan-13-oate [Example 6]”: in data set [1], the Miscibility with water result is “mixes with water in any ratio”. Further, the Viscosity in data set [2] (at 25° C.) was 4.67 · 10^2 mPa · s. Moreover, the “Character in aqueous solution” value in data set [5] is listed as “surfactant character”. The compound also showed a Decomposition point in data set [4] of 165 °C.
